In patent US20100120711A1, “AMPK POTENTIATOR CONTAINING CHITO-OLIGOSACCHARIDE” (AMOREPACIFIC CORPORATION, priority 2006, published 2010):

Key:
Assay type in all cases: cell-based
AMPK = AMPK activation: western blot of AMPK and p-AMPK protein expression in liver cells; conditions: HepG2 liver cells; AICAR 1 mM; chito-oligosaccharide 100, 500 ppm; western blot optical density
Experimental: (§1) Chito-oligosaccharides with a molecular weight of 2,000 and 9,000 (100, 500 ppm) and liver cells (HepG2) treated by AICAR (1 mM) were added to a lysis buffer (50 mM Tris-HCl, pH 7.4, 150 mM NaCl, 0.1% SDS, 1.0% Triton X-100. 0.25% Deoxycholate, 1 mM EDTA, 1 mM PMSF) to disrupt the cells. The homogenate was centrifuged at 12,000 rpm for 15 minutes and a layer of protein was obtained. The degree of expression of ACC and p-ACC proteins was determined by a western blotting. 50 μg of protein was loaded on SDS-polyacrylamide gel, electrophoresis was carried out, and the gel was transferred to a nitrocellulose membrane. The membrane was reacted with blocking solution (5% skim milk, 10 mM Tris, pH7.5, 10 mM NaCl, 0.1% Tween 20) for 1 hour to remove nonspecific bindings, the primary antibodies to AMPK and p-AMPK proteins were added and it was maintained overnight at 4° C. Thereafter, it was washed with a blocking solution for 10 minutes three times, the secondary antibodies were added thereto, and they were reacted for 1 hour and washed as described above. After adding ECL solution, the membrane was exposed to X-ray film and the amount of protein was measured. The change in the amount of protein was calculated by an optical density with an image analyzer.

ACC = ACC activation: western blot of ACC and p-ACC protein expression in liver cells; conditions: HepG2 liver cells
Experimental: as §1
The expressions of ACC and p-ACC proteins were measured by a Western blotting as described above.

liver cells (HepG2) [1] = assay: Fatty acid oxidation in liver cells ([1-14C]-palmitate); conditions: 6 hours culture, positive control
Experimental: To determine the degree of fatty acid oxidation in liver cells, HepG2 cells were seeded on a 96-well plate. After stabilizing the seeded plate, AICAR and chito-oligosaccharide were added in a concentration of 100 and 500 ppm. After culturing for 6 hours, to the cells was added […] of assay buffer (20 mM HEPES, 25 mM NaHCO3, 1.2 mM KH2PO4, 3 mM glucose, 114 mM NaCl, 4.7 mM KCl, 1.2 mM MgSO4, 2.5 mM CaCl2, 1% ultra fatty acid-free BSA) and they are reacted for 30 minutes. Then, [1-^14C]-palmitate (3.4 μCi; 1.0 μCi/μmole) was incorporated thereto and labeling was carried out for 2 hours. 5% perchloric acid was added to stop the reaction and the amount of radiation was measured.

liver cells (HepG2) [2] = assay: Production of ATP in liver cells (ATP assay kit, luminescence); conditions: 5 to 500 ppm, 24 hours culture
Experimental: The production of ATP according to AMPK activation was measured by ATP assay kit. HepG2 cells were seeded on a 96-well plate and the seeded plate was stabilized and, thereafter, AICAR and chito-oligosaccharide were added in a concentration of 5 to 500 ppm. After culturing for 24 hours, the reagent prepared by mixing a substrate and a buffer was added to each well and they were reacted for 30 minutes at a room temperature. Cells were disrupted by mixing them in an orbital shaker and, after stabilizing them for 10 minutes, a luminescence was measured.

NC(=O)c1ncn([C@@H]2O[C@H](CO)[C@@H](O)[C@H]2O)c1N [AICAR, AICA-riboside]
expression of p-AMPK protein (AMPK): increased twice or more
amount of p-ACC protein expression (ACC; AICAR 1 mM, chito-oligosaccharide concentration not specified): up to twice
total amount of ACC protein expression (ACC; western blot): not changed
increased oxidation of fatty acid (liver cells (HepG2) [1]): about 35%
production of ATP (liver cells (HepG2) [2]): up to twice
